Reference: ChEMBL document CHEMBL1909046, “DrugMatrix in vitro pharmacology data”

Key:
[1] = target: Beta-1 adrenergic receptor (Homo sapiens, UniProt P08588); experiment: DRUGMATRIX: Adrenergic beta1 radioligand binding (ligand: [125I] Cyanopindolol); type: cell membranes, CHO-K1, Membrane; details: cho-k1; Not Active = under 50% inhibition at 10 µM
[2] = DRUGMATRIX: Atrial Natriuretic Factor (ANF) radioligand binding (ligand: [125I] ANF (rat)); type: cell membranes, Cavia porcellus, Dunkin-Hartley, Adrenal gland, Membrane; details: Not Active = under 50% inhibition at 10 µM
[3] = DRUGMATRIX: GABAA, Flunitrazepam, Central radioligand binding (ligand: [3H] Flunitrazepam); type: cell membranes, Rattus norvegicus, Wistar, Brain, Membrane; details: Not Active = under 50% inhibition at 10 µM
[4] = DRUGMATRIX: Imidazoline I2, Central radioligand binding (ligand: [3H] Idazoxan); type: cell membranes, Rattus norvegicus, Wistar, Cerebral cortex, Membrane; details: Not Active = under 50% inhibition at 10 µM
[5] = DRUGMATRIX: Leukotriene, BLT (LTB4) radioligand binding (ligand: [3H]LTB4); type: cell membranes, Membrane; details: u-937; Not Active = under 50% inhibition at 10 µM
[6] = DRUGMATRIX: Nicotinic Acetylcholine radioligand binding (ligand: [125I] Epibatidine); type: cell membranes, Membrane; details: imr-32; Not Active = under 50% inhibition at 10 µM
[7] = DRUGMATRIX: Phosphodiesterase PDE3 enzyme inhibition (substrate: [3H]cAMP + cAMP); type: tissue-based, Homo sapiens; details: platelet; Not Active = under 50% inhibition at 10 µM
Glucocorticoid receptor = target: T1, Glucocorticoid receptor (Homo sapiens, UniProt P04150); details: hela s3; further: in other assays of this panel Not Active means under 50% inhibition at 10 µM
T1 sequence (P04150 whole entry): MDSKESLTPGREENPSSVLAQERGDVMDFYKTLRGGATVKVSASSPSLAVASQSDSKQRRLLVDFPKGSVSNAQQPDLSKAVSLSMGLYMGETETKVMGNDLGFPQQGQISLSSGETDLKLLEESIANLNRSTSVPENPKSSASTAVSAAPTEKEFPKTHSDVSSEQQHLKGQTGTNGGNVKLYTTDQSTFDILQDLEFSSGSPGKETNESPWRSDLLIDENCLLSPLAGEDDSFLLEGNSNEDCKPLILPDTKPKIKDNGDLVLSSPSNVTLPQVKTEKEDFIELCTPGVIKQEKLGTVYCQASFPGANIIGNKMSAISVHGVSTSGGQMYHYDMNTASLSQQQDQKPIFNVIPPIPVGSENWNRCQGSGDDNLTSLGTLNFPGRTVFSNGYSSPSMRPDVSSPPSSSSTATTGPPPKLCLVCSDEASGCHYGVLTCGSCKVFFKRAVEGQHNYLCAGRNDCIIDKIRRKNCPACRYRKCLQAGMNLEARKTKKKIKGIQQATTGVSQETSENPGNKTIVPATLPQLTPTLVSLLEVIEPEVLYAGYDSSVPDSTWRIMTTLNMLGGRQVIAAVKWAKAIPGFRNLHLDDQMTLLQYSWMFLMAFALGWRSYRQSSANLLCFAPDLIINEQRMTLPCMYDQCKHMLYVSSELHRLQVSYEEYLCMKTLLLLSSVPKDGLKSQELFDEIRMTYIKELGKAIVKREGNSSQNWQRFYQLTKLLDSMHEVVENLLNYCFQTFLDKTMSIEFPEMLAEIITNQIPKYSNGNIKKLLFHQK

Beta-1 adrenergic receptor, sequence (P08588 whole entry): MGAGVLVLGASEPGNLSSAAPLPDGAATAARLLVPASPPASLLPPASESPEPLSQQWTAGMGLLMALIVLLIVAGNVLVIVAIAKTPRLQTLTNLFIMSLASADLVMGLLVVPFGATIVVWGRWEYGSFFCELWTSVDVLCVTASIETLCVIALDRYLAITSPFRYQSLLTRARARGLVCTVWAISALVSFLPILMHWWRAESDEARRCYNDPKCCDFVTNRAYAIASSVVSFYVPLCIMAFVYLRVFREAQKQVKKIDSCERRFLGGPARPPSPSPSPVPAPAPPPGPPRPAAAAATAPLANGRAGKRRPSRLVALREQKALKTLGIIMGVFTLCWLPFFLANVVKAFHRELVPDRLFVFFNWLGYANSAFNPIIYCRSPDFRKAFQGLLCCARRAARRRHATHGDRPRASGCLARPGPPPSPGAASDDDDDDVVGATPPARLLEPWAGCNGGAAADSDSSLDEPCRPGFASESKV

ZIRCONIUM(IV) CHLORIDE
Not Active: IC50 [1] | Ki [1] | IC50 [2] | Ki [2] | IC50 [3] | Ki [3] | IC50 [4] | Ki [4] | IC50 [5] | Ki [5] | IC50 [6] | Ki [6] | IC50 [7] | Ki [7] | IC50 (Glucocorticoid receptor) | Ki (Glucocorticoid receptor)
